Measured values reported in PubChem BioAssay AID510.

molecular target: Dehydrogenase/reductase SDR family member 6 (Homo sapiens) (UniProt Q9BUT1); test: DHRS6 binders by thermal stabilisation, biophysical, DSF, SYPRO orange, purified human protein (AID 510); settings: at 100 µM, protein 2 µM, buffer 10 mM HEPES, pH 7.5, NaCl 150 mM, stronger effect = higher value
Sequence (Q9BUT1 whole entry, looked up): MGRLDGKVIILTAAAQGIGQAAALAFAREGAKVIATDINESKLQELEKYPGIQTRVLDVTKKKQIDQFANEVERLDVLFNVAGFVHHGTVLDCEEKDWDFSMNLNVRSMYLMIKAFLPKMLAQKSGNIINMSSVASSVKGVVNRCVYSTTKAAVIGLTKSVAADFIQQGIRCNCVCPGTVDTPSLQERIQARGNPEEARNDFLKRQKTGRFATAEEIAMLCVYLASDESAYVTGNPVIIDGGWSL

Tm shift [Celsius] | SMILES
2.2 | O=c1oc2cc(O)ccc2c2oc3cc(O)ccc3c12
2.4 | NC(=O)c1ccc[n+](C2OC(COP(=O)(O)OP(=O)(O)OCC3OC(n4cnc5c(N)ncnc54)C(O)C3O)C(O)C2O)c1 (stereo not given)
2.2 | O=C(C1CCN(S(=O)(=O)c2cccnc2)CC1)N1CCN(C(c2ccccc2)c2ccc(Cl)cc2)CC1 (stereo not given)
8.1 | C=CC1=C(C)/C(=C/c2[nH]c(Cc3[nH]c(/C=C4\NC(=O)C(C)=C4C=C)c(C)c3CCC(=O)O)c(CCC(=O)O)c2C)NC1=O

SMILES | Tm shift [Celsius]
O=C1C2(Cl)C3(Cl)C4(Cl)C(Cl)(Cl)C5(Cl)C3(Cl)C1(Cl)C5(Cl)C24Cl (stereo not given) | 4.7
